Laboratory results: ChEMBL document CHEMBL1201861, “Genomics of Drug Sensitity in Cancer screening data, Wellcome Trust Sanger Institute”

Experiments:
Assay in all cases: cells
KG-1 = format: functional, cell-based; conditions: Homo sapiens
Description: SANGER: Inhibition of human KG-1 cell growth in a cell viability assay.

IST-MEL1 = format: functional, cell-based, Homo sapiens; conditions: Homo sapiens, IST-MEL1
Description: SANGER: Inhibition of human IST-MEL1 cell growth in a cell viability assay.

MOLT-16 = format: functional, cell-based; conditions: Homo sapiens
Description: SANGER: Inhibition of human MOLT-16 cell growth in a cell viability assay.

MDA-MB-231 = format: functional, cell-based, Homo sapiens; conditions: Homo sapiens, MDA-MB-231
Description: SANGER: Inhibition of human MDA-MB-231 cell growth in a cell viability assay.

BB49-HNC = format: functional, cell-based, Homo sapiens; conditions: Homo sapiens, BB49-HNC
Description: SANGER: Inhibition of human BB49-HNC cell growth in a cell viability assay.

CHL-1 = format: functional, cell-based, Homo sapiens; conditions: Homo sapiens, CHL-1
Description: SANGER: Inhibition of human CHL-1 cell growth in a cell viability assay.

LB2518-MEL = format: functional, cell-based, Homo sapiens; conditions: Homo sapiens, LB2518-MEL
Description: SANGER: Inhibition of human LB2518-MEL cell growth in a cell viability assay.

SW780 = format: functional, cell-based, Homo sapiens; conditions: Homo sapiens, SW780
Description: SANGER: Inhibition of human SW780 cell growth in a cell viability assay.

BT-20 = format: functional, cell-based, Homo sapiens; conditions: Homo sapiens, BT-20
Description: SANGER: Inhibition of human BT-20 cell growth in a cell viability assay.

KYSE-410 = format: functional, cell-based, Homo sapiens; conditions: Homo sapiens, KYSE-410
Description: SANGER: Inhibition of human KYSE-410 cell growth in a cell viability assay.

RH-1 = format: functional, cell-based, Homo sapiens; conditions: Homo sapiens, RH-1
Description: SANGER: Inhibition of human RH-1 cell growth in a cell viability assay.

KYSE-150 cell line = format: functional, cell-based, Homo sapiens; conditions: Homo sapiens, KYSE-150
Description: SANGER: Inhibition of human KYSE-150 cell growth in a cell viability assay.

MOLT-4 = format: functional, cell-based; conditions: Homo sapiens
Description: SANGER: Inhibition of human MOLT-4 cell growth in a cell viability assay.

SW1417 = format: functional, cell-based, Homo sapiens; conditions: Homo sapiens, SW1417
Description: SANGER: Inhibition of human SW1417 cell growth in a cell viability assay.

ES5 = format: functional, cell-based, Homo sapiens; conditions: Homo sapiens, ES5
Description: SANGER: Inhibition of human ES5 cell growth in a cell viability assay.

OVCAR-4 = format: functional, cell-based, Homo sapiens; conditions: Homo sapiens, OVCAR-4
Description: SANGER: Inhibition of human OVCAR-4 cell growth in a cell viability assay.

QIMR-WIL = format: functional, cell-based; conditions: Homo sapiens
Description: SANGER: Inhibition of human QIMR-WIL cell growth in a cell viability assay.

MHH-NB-11 = format: functional, cell-based, Homo sapiens; conditions: Homo sapiens, MHH-NB-11
Description: SANGER: Inhibition of human MHH-NB-11 cell growth in a cell viability assay.

RS4-11 = format: functional, cell-based; conditions: Homo sapiens
Description: SANGER: Inhibition of human RS4-11 cell growth in a cell viability assay.

EW-13 = format: functional, cell-based; conditions: Homo sapiens
Description: SANGER: Inhibition of human EW-13 cell growth in a cell viability assay.

ML-2 = format: functional, cell-based; conditions: Homo sapiens
Description: SANGER: Inhibition of human ML-2 cell growth in a cell viability assay.

VA-ES-BJ = format: functional, cell-based, Homo sapiens; conditions: Homo sapiens, VA-ES-BJ
Description: SANGER: Inhibition of human VA-ES-BJ cell growth in a cell viability assay.

NCI-H69 = format: functional, cell-based; conditions: Homo sapiens
Description: SANGER: Inhibition of human NCI-H69 cell growth in a cell viability assay.

RPMI-7951 = format: functional, cell-based, Homo sapiens; conditions: Homo sapiens, RPMI-7951
Description: SANGER: Inhibition of human RPMI-7951 cell growth in a cell viability assay.

GI-1 = format: functional, cell-based, Homo sapiens; conditions: Homo sapiens, GI-1
Description: SANGER: Inhibition of human GI-1 cell growth in a cell viability assay.

TE-5 = format: functional, cell-based, Homo sapiens; conditions: Homo sapiens, TE-5
Description: SANGER: Inhibition of human TE-5 cell growth in a cell viability assay.

YKG-1 = format: functional, cell-based, Homo sapiens; conditions: Homo sapiens, YKG-1
Description: SANGER: Inhibition of human YKG-1 cell growth in a cell viability assay.

EW-11 = format: functional, cell-based, Homo sapiens; conditions: Homo sapiens, EW-11
Description: SANGER: Inhibition of human EW-11 cell growth in a cell viability assay.

SK-HEP1 = format: functional, cell-based, Homo sapiens, SK-HEP-1; conditions: Homo sapiens, SK-HEP1
Description: SANGER: Inhibition of human SK-HEP-1 cell growth in a cell viability assay.

NCI-H1304 = format: functional, cell-based; conditions: Homo sapiens
Description: SANGER: Inhibition of human NCI-H1304 cell growth in a cell viability assay.

MFH-ino = format: functional, cell-based; conditions: Homo sapiens
Description: SANGER: Inhibition of human MFH-ino cell growth in a cell viability assay.

SK-OV-3 = format: functional, cell-based, Homo sapiens; conditions: Homo sapiens, SK-OV-3
Description: SANGER: Inhibition of human SK-OV-3 cell growth in a cell viability assay.

SW 962 = format: functional, cell-based, Homo sapiens; conditions: Homo sapiens, SW 962
Description: SANGER: Inhibition of human SW962 cell growth in a cell viability assay.

T84 = format: functional, cell-based, Homo sapiens; conditions: Homo sapiens, T84
Description: SANGER: Inhibition of human T84 cell growth in a cell viability assay.

HPAF-II = format: functional, cell-based, Homo sapiens; conditions: Homo sapiens, HPAF-II
Description: SANGER: Inhibition of human HPAF-II cell growth in a cell viability assay.

NCI-H2452 = format: functional, cell-based, Homo sapiens; conditions: Homo sapiens, NCI-H2452
Description: SANGER: Inhibition of human NCI-H2452 cell growth in a cell viability assay.

SK-MEL-24 = format: functional, cell-based; conditions: Homo sapiens
Description: SANGER: Inhibition of human SK-MEL-24 cell growth in a cell viability assay.

SW 954 = format: functional, cell-based, Homo sapiens; conditions: Homo sapiens, SW 954
Description: SANGER: Inhibition of human SW954 cell growth in a cell viability assay.

HL-60 = format: functional, cell-based; conditions: Homo sapiens
Description: SANGER: Inhibition of human HL-60 cell growth in a cell viability assay.

T47D = format: functional, cell-based, Homo sapiens; conditions: Homo sapiens, T47D
Description: SANGER: Inhibition of human T47D cell growth in a cell viability assay.

KU812 cell line = format: functional, cell-based; conditions: Homo sapiens
Description: SANGER: Inhibition of human KU812 cell growth in a cell viability assay.

HO-1-N-1 = format: functional, cell-based, Homo sapiens; conditions: Homo sapiens, HO-1-N-1
Description: SANGER: Inhibition of human HO-1-N-1 cell growth in a cell viability assay.

SK-N-FI = format: functional, cell-based, Homo sapiens; conditions: Homo sapiens, SK-N-FI
Description: SANGER: Inhibition of human SK-N-FI cell growth in a cell viability assay.

BFTC-909 = format: functional, cell-based, Homo sapiens; conditions: Homo sapiens, BFTC-909
Description: SANGER: Inhibition of human BFTC-909 cell growth in a cell viability assay.

HSC-3 = format: functional, cell-based, Homo sapiens; conditions: Homo sapiens, HSC-3
Description: SANGER: Inhibition of human HSC-3 cell growth in a cell viability assay.

5637 = format: functional, cell-based, Homo sapiens; conditions: Homo sapiens
Description: SANGER: Inhibition of human 5637 cell growth in a cell viability assay.

HOP-92 = format: functional, cell-based, Homo sapiens; conditions: Homo sapiens, HOP-92
Description: SANGER: Inhibition of human HOP-92 cell growth in a cell viability assay.

GR-ST = format: functional, cell-based; conditions: Homo sapiens
Description: SANGER: Inhibition of human GR-ST cell growth in a cell viability assay.

NB7 = format: functional, cell-based; conditions: Homo sapiens
Description: SANGER: Inhibition of human NB7 cell growth in a cell viability assay.

D283 Med = format: functional, cell-based, Homo sapiens; conditions: Homo sapiens, D283 Med
Description: SANGER: Inhibition of human D-283MED cell growth in a cell viability assay.

DBTRG-05MG = format: functional, cell-based, Homo sapiens; conditions: Homo sapiens, DBTRG-05MG
Description: SANGER: Inhibition of human DBTRG-05MG cell growth in a cell viability assay.

## O=C(NOCC1CC1)c1ccc(F)c(F)c1Nc1ccc(I)cc1Cl [CI-1040]
KG-1
  IC50: 0.307 µM
IST-MEL1
  IC50: 8 µM
MOLT-16
  IC50: > 10 µM
MDA-MB-231
  IC50: 4.29 µM
BB49-HNC
  IC50: > 10 µM
CHL-1
  IC50: 2.81 µM
LB2518-MEL
  IC50: 0.716 µM
SW780
  IC50: 3.14 µM
BT-20
  IC50: > 10 µM
KYSE-410
  IC50: > 10 µM
RH-1
  IC50: > 10 µM
KYSE-150 cell line
  IC50: > 10 µM
MOLT-4
  IC50: > 10 µM
SW1417
  IC50: 9.57 µM
ES5
  IC50: > 10 µM
OVCAR-4
  IC50: > 10 µM
QIMR-WIL
  IC50: > 10 µM
MHH-NB-11
  IC50: 6.85 µM
RS4-11
  IC50: 5.67 µM
EW-13
  IC50: 2.56 µM
ML-2
  IC50: 1.53 µM
VA-ES-BJ
  IC50: > 10 µM
NCI-H69
  IC50: > 10 µM
RPMI-7951
  IC50: 4.26 µM
GI-1
  IC50: > 10 µM
TE-5
  IC50: 8.42 µM
YKG-1
  IC50: 9.75 µM
EW-11
  IC50: > 10 µM
SK-HEP1
  IC50: 5.93 µM
NCI-H1304
  IC50: 6.2 µM
MFH-ino
  IC50: > 10 µM
SK-OV-3
  IC50: > 10 µM
SW 962
  IC50: > 10 µM
T84
  IC50: > 10 µM
HPAF-II
  IC50: 3.75 µM
NCI-H2452
  IC50: > 10 µM
SK-MEL-24
  IC50: 0.328 µM
SW 954
  IC50: 8.97 µM
HL-60
  IC50: 0.411 µM
T47D
  IC50: > 10 µM
KU812 cell line
  IC50: 0.453 µM
HO-1-N-1
  IC50: 1.52 µM
SK-N-FI
  IC50: 8.81 µM
BFTC-909
  IC50: > 10 µM
HSC-3
  IC50: 3.23 µM
5637
  IC50: > 10 µM
HOP-92
  IC50: 4.26 µM
GR-ST
  IC50: 7.4 µM
NB7
  IC50: 2.34 µM
D283 Med
  IC50: > 10 µM
DBTRG-05MG
  IC50: 8.75 µM

## CC(=O)O[C@@]12CO[C@@H]1C[C@H](O)[C@@]1(C)C(=O)[C@H](O)C3=C(C)[C@@H](OC(=O)[C@H](O)[C@@H](NC(=O)OC(C)(C)C)c4ccccc4)C[C@@](O)([C@@H](OC(=O)c4ccccc4)[C@H]21)C3(C)C [DOCETAXEL]
KG-1
  IC50: > 0.01 µM
IST-MEL1
  IC50: 0.00225 µM
MOLT-16
  IC50: 0.00827 µM
MDA-MB-231
  IC50: 0.0073 µM
BB49-HNC
  IC50: 0.00212 µM
CHL-1
  IC50: 0.000958 µM
LB2518-MEL
  IC50: > 0.01 µM
SW780
  IC50: 0.000587 µM
BT-20
  IC50: 0.00376 µM
KYSE-410
  IC50: 0.00124 µM
RH-1
  IC50: 0.000386 µM
KYSE-150 cell line
  IC50: 0.00499 µM
MOLT-4
  IC50: 0.00471 µM
SW1417
  IC50: 0.00276 µM
ES5
  IC50: 0.00091 µM
OVCAR-4
  IC50: 0.00586 µM
QIMR-WIL
  IC50: 0.00438 µM
MHH-NB-11
  IC50: > 0.01 µM
RS4-11
  IC50: > 0.01 µM
EW-13
  IC50: > 0.01 µM
ML-2
  IC50: > 0.01 µM
VA-ES-BJ
  IC50: 0.000375 µM
NCI-H69
  IC50: > 0.01 µM
RPMI-7951
  IC50: 0.000448 µM
GI-1
  IC50: 0.000528 µM
TE-5
  IC50: 0.00106 µM
YKG-1
  IC50: 0.000707 µM
EW-11
  IC50: 0.00169 µM
SK-HEP1
  IC50: 0.00234 µM
NCI-H1304
  IC50: > 0.01 µM
MFH-ino
  IC50: > 0.01 µM
SK-OV-3
  IC50: > 0.01 µM
SW 962
  IC50: 0.00293 µM
T84
  IC50: > 0.01 µM
HPAF-II
  IC50: 0.00926 µM
NCI-H2452
  IC50: 0.00216 µM
SK-MEL-24
  IC50: > 0.01 µM
SW 954
  IC50: 0.000823 µM
HL-60
  IC50: 0.00359 µM
T47D
  IC50: 0.00431 µM
KU812 cell line
  IC50: > 0.01 µM
HO-1-N-1
  IC50: 0.000281 µM
SK-N-FI
  IC50: > 0.01 µM
BFTC-909
  IC50: 0.00225 µM
HSC-3
  IC50: 0.000132 µM
5637
  IC50: 0.000143 µM
HOP-92
  IC50: 0.0073 µM
GR-ST
  IC50: > 0.01 µM
NB7
  IC50: > 0.01 µM
D283 Med
  IC50: 0.00624 µM
DBTRG-05MG
  IC50: 0.00917 µM
